Measured values from patent US7018807B2, “Method and medium for detecting vancomycin-resistant enterococcus” (priority 1996, dated 2006).

Key:
Test in all cases: MIC for vancomycin
Assay type in all cases: cell-based
[1] = test system: Enterococcus faecium VRE05; settings: strain VRE05, read-out: MIC (minimum inhibitory concentration for vancomycin)
[2] = test system: Enterococcus faecium VRE02; settings: VRE02, read-out: MIC (minimum inhibitory concentration for vancomycin)
[3] = test system: Enterococcus faecium VRE04; settings: strain VRE04, read-out: MIC (minimum inhibitory concentration for vancomycin)
[4] = test system: Enterococcus faecium VRE07; settings: strain VRE07, read-out: MIC (minimum inhibitory concentration for vancomycin)
[5] = test system: Enterococcus faecium VRE03; settings: strain VRE03, read-out: MIC (minimum inhibitory concentration for vancomycin)
[6] = test system: Enterococcus faecium VRE06; settings: strain VRE06, read-out: MIC (minimum inhibitory concentration for vancomycin)

Measured: MIC

CN[C@H](CC(C)C)C(=O)N[C@H]1C(=O)N[C@@H](CC(N)=O)C(=O)N[C@H]2C(=O)N[C@H]3C(=O)N[C@H](C(=O)N[C@H](C(=O)O)c4cc(O)cc(O)c4-c4cc3ccc4O)[C@H](O)c3ccc(c(Cl)c3)Oc3cc2cc(c3O[C@@H]2O[C@H](CO)[C@@H](O)[C@H](O)[C@H]2O[C@H]2C[C@](C)(N)[C@H](O)[C@H](C)O2)Oc2ccc(cc2Cl)[C@H]1O [vancomycin]
> 256 µg/mL: [1] | [2] | [3] | [4] | [5] | [6]
